# Reference: ChEMBL document CHEMBL1201862, “PubChem BioAssay data set” (2004)
# The source made the active and inactive calls.
# Molecular target: T1, Leucine aminopeptidase (Plasmodium falciparum 3D7, UniProt Q8IL11)
# T1 sequence (Q8IL11 whole entry): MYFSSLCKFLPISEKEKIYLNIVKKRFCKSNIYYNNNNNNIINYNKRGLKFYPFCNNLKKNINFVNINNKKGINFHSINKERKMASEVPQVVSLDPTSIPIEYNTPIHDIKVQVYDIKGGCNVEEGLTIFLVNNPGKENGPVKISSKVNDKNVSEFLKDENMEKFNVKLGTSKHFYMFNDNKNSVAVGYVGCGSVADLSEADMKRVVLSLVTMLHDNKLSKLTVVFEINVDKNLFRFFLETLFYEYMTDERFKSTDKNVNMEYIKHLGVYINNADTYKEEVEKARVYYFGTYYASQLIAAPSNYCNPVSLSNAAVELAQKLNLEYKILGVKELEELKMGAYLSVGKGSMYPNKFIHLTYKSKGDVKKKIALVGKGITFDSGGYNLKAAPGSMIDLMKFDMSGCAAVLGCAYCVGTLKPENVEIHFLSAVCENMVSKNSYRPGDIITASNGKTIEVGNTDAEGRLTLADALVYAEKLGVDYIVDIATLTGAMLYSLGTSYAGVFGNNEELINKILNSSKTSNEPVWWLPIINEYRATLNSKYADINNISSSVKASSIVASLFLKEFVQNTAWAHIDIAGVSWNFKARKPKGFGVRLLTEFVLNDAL
# Assay: P. falciparum M17LAP inhibitors, primary screen, biochemical, fluorogenic H-Leu-NHMec substrate, 1536-well (AID 1619)
# Assay type: functional
row,IC50,SMILES
1,13.5 µM (active),Cc1cccc(C)c1Nc1nnc(SC(C)C(=O)Nc2c(C)n(C)n(-c3ccccc3)c2=O)s1 (stereo not given)
2,46.2 µM (active),C=CCn1c(=S)[nH]c2sc3c(c2c1=O)CCC3
3,34.3 µM (active),O=C(O)c1cccc(CN2C(=O)SC(Nc3ccccc3)C2=O)c1 (stereo not given)
4,64.8 µM (active),c1ccc(-c2nnc(Sc3ncnc4c3cnn4-c3ccccc3)[nH]2)cc1
5,29.4 µM (active),CC1SCC(=O)N(CC(=O)Nc2ccc3c(c2)OCO3)C1=O (stereo not given)
6,29.2 µM (active),O=C(CSc1ncccc1C(=O)O)NCCC1=CCCCC1
7,6.6 µM (active),Nc1nnc(Nc2ccc(Cl)cc2)[nH]1

# Molecular target: Paired box protein Pax-8 (Homo sapiens, UniProt Q06710)
# Sequence (Q06710 whole entry): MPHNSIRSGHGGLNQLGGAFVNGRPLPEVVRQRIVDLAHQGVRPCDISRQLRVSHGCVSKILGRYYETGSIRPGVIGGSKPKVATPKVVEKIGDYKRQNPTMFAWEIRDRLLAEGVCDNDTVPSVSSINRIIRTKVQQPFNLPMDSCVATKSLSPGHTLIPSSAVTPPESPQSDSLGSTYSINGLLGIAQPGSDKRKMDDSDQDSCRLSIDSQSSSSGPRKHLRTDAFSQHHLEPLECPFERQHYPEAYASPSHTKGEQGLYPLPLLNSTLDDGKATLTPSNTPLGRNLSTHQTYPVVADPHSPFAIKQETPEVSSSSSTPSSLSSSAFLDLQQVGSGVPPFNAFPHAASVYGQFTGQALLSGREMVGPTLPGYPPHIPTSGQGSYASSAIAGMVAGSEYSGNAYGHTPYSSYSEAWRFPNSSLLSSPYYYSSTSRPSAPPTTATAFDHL
# Assay: inhibitors of PAX8-driven TPO luciferase reporter, dose response, RMG-I cells, cherry-pick (AID 687027);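 further: luciferase reporter driven by Pax8 target thyroperoxidase promoter measured by SteadyGlo luminescence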
# Assay type: functional, cell-based
row,AC50,SMILES
1,51.8 µM (active),O=C(N/N=C/c1ccsc1)c1cc(-c2cccs2)nc2ccccc12
2,20.8 µM (active),N#C[C@H]1[C@H](c2ccc(C#CC3CCCCC3)cc2)[C@H](CO)N1C(=O)Nc1ccc(F)cc1
3,8.7 µM (active),C[C@@H]1CCCCO[C@@H](CN(C)Cc2ccc(C(F)(F)F)cc2)[C@@H](C)CN([C@@H](C)CO)C(=O)c2cc(NS(=O)(=O)c3ccc(F)cc3)ccc2O1
4,13.3 µM (active),Cc1ccc(S(=O)(=O)N[C@@H]2C=C[C@@H](CC(=O)N3CCC(Cc4ccccc4)CC3)O[C@@H]2CO)cc1
5,4.47 µM (active),Cc1ccc(S(=O)(=O)Nc2ccc3c(c2)C(=O)N([C@@H](C)CO)C[C@@H](C)[C@H](CN(C)S(=O)(=O)c2ccc(Cl)cc2)OCCCC[C@@H](C)O3)cc1

# Molecular target: FAD-linked sulfhydryl oxidase ALR (Homo sapiens, UniProt P55789)
# Sequence (P55789 whole entry): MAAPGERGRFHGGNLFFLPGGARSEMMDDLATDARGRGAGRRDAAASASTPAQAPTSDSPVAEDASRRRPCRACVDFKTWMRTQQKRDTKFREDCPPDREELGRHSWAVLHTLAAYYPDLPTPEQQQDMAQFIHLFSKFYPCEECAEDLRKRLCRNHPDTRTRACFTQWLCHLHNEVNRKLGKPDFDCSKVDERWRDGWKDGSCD
# Assay: inhibitors of human ALR sulfhydryl oxidase, dose response, biochemical, H2O2 detection, luminescence, cherry-pick (AID 493248)
row,AC50,SMILES
1,4.22 µM (active),Nc1nnc(Nc2ccc(Cl)cc2)[nH]1

# Molecular target: Cytochrome P450 2C9 (Homo sapiens, UniProt P11712)
# Sequence (P11712 whole entry): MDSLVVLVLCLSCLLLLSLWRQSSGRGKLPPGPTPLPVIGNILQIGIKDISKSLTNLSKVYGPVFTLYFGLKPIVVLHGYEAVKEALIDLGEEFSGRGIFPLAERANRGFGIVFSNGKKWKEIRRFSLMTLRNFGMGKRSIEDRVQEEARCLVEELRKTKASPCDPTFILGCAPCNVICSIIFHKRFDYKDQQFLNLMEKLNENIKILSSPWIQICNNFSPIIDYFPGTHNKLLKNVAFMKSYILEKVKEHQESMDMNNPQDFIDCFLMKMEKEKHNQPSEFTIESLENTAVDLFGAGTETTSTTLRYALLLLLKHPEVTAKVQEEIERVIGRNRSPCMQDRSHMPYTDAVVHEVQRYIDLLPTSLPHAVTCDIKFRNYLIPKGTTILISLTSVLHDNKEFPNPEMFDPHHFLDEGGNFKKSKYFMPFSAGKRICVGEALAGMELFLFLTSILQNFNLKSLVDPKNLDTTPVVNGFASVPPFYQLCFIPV
# Assay: not given
row,AC50,SMILES
1,20 µM (inconclusive),COc1ccc(NC(C)=O)cc1NC(=O)CN1CCN(CC(=O)Nc2ccccc2Cl)CC1

# Test system: not listed separately
# Assay: growth suppression of PTEN-null colon cells, dose response, cell-based, HCT116 PTEN knockout (AID 1047);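 further: HCT116 colon tumor cells with PTEN knocked out; cells exposed to compound for 60 hours before readout; potency for loss of cell viability measured by luminescence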
# Assay type: functional
row,SMILES,EC50
1,S=C(Nc1ccccn1)c1ccccn1,5.48 µM (active)
2,Cc1cccc(NC(=O)Cn2cnc3c(cnn3-c3ccc(F)cc3)c2=O)c1C,6.93 µM (active)

# Test system: not listed separately
# Assay: growth suppression of beta-catenin-knockout colon cells, dose response, cell-based, HCT116, human colon tumor (AID 1045);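 further: HCT116 colon tumor cells with beta catenin knocked out; cells exposed to compound for 60 hours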
# Assay type: functional
row,SMILES,EC50
1,S=C(Nc1ccccn1)c1ccccn1,5.37 µM (active)
2,Cc1cccc(NC(=O)Cn2cnc3c(cnn3-c3ccc(F)cc3)c2=O)c1C,14.2 µM (active)

# Molecular target: T2, Heat shock factor protein 1 (Mus musculus, UniProt P38532)
# T2 sequence (P38532 whole entry): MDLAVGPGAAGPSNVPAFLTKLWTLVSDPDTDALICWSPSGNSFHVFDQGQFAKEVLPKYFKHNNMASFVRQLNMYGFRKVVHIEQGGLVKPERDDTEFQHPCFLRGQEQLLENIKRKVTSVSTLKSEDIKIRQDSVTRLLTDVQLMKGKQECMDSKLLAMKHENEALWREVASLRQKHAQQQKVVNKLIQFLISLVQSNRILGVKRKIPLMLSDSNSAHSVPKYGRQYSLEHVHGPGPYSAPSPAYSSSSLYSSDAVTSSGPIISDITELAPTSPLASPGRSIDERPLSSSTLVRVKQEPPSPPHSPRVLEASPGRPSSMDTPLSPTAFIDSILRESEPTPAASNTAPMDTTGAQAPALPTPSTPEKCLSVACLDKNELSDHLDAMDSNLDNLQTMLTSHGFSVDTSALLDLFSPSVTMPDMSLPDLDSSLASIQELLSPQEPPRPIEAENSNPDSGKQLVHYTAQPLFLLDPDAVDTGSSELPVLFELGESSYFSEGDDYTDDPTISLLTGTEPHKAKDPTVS
# Assay: inhibition of MG132-induced HSE-luciferase signal, confirmation, cell-based, NIH3T3, luminescence, dose retest (AID 2382);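 further: NIH3T3 fibroblasts with HSF1-driven luciferase reporter stressed by proteasome inhibitor MG132; luminescence from HSF1-driven luciferase expression after 8 hours of MG132 stress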
# Assay type: functional
row,EC50,SMILES
1,5.9 µM (active),CC(C)CCNC(=O)CN(C(=O)CCC(=O)Nc1nccs1)c1ccc2c(c1)OCCO2
2,0.328 µM (active),CN1CCN(c2nc(-c3ccc(C(C)(C)C)cc3)nc3ccccc23)CC1
3,> 195 µM (not active),CC(=O)Nc1nn(C)c2nc(C)cc(C)c12
4,> 195 µM (not active),COc1ccc(NC(C)=O)cc1NC(=O)CN1CCN(CC(=O)Nc2ccccc2Cl)CC1
5,> 195 µM (not active),CC1CC(=O)Nc2cc([N+](=O)[O-])ccc2N1 (stereo not given)
6,> 195 µM (not active),COc1ccc(C(C)N2CC34C=CC(O3)C(C(=O)O)C4C2=O)cc1 (stereo not given)
7,> 195 µM (not active),Cc1cnc(C(=O)Nc2ccccc2-n2cccc2)cn1
8,> 195 µM (not active),N#C/C(=C/c1cccc(C(F)(F)F)c1)c1nc(CCN2C(=O)c3ccccc3C2=O)cs1
9,> 195 µM (not active),NS(=O)(=O)c1ccc(CN=C(S)NC2CCCCC2)cc1
10,> 195 µM (not active),CCCN1Cc2cccc(C(=O)N3CCN(c4ccc(OC)cc4)CC3)c2C1=O
11,> 195 µM (not active),Cc1ccc(S(=O)(=O)N2CCN(CCNC(=O)C(=O)NCc3ccccc3)CC2)cc1
12,> 195 µM (not active),c1ccc(-c2nc3ccccc3c3nncn23)cc1

# Molecular target: T3, Rac GTPase-activating protein 1 (Homo sapiens, UniProt Q9H0H5)
# T3 sequence (Q9H0H5 whole entry): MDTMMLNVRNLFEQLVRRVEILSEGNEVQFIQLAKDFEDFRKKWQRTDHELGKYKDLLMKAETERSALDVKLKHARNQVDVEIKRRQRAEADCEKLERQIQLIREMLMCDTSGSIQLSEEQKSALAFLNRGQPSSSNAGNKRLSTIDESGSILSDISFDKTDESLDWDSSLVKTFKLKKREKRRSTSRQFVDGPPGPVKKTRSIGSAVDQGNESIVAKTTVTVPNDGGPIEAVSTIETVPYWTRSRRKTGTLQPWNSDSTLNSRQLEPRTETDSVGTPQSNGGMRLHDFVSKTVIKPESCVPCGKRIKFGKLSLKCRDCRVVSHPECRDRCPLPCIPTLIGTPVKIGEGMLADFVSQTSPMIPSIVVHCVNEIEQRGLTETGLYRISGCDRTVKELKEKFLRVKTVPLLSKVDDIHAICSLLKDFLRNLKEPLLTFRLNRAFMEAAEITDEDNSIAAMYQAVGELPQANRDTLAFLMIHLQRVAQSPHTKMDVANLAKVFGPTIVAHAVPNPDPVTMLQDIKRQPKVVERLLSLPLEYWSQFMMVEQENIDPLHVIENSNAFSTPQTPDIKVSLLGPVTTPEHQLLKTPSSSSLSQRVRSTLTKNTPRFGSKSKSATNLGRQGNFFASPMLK
# Assay: MgcRacGAP GTPase-activating activity inhibitors, confirmation, biochemical, ADP Hunter fluorescence, primary and confirmatory (AID 624330)
# Assay type: functional
row,IC50,SMILES
1,65 µM (active),COc1ccc2cc(OCC(=O)NNC(=O)Nc3ccc(F)cc3)ccc2c1
2,29.1 µM (active),C=CCn1c(SCC(C)=O)nnc1-c1cc(-c2ccccc2)sc1N
3,42.8 µM (active),Nc1ccc(O)c([N+](=O)[O-])c1
4,87.2 µM (active),Cc1cccc(CN2CCN(Cc3ccco3)CC2)c1
5,92.4 µM (active),Nc1ccn([C@@H]2O[C@H](CNCC3=CCOc4ccc(O)cc43)[C@@H](O)[C@H]2O)c(=O)n1
6,46.2 µM (active),CCOc1cc(/C=N/NC(=O)c2ccccc2-n2cccc2)ccc1O
7,57.5 µM (active),COc1ccc(/C=N/NC(=O)c2cccc(S(=O)(=O)N3CCCC3)c2)cc1O
8,114 µM (active),COc1ccc(/C=N/NC(=O)c2ccc(CSc3nc(C)cc(C)n3)cc2)cc1O
9,51.6 µM (active),O=C(N/N=C/c1ccc(O)cc1)c1csc2c1CCCC2

row,SMILES,IC50
1,CCN1CCN(CC(c2ccccc2)c2ccccc2)CC1,197 µM (active)
